One data set concerns 293 ATXN3/Q75-GFP cells. Description: ATXN3/Q75 aggregation assay in 293 cells (high-content analysis). It counts as cell-based, human. As to conditions: 8 hr pretreatment, doxycycline and oxaliplatin 6 days. The procedure:
The isogenic ATXN3/[…]-75 cell line was employed, which was formed from subjecting the Flp-InTM-293 cells to targeting insertion of the pcDNA5/FRT/TO-ATXN3/[…] and […] recombinant plasmids. These cell lines were grown in medium containing 5 μg/mL blasticidin and 100 μg/mL hygromycin (InvivoGen). In addition, the method for culture in establishment of the human SH-SY5Y derived Flp-In host cell line and the formation of the isogenic ATXN3/[…]-75 cell line was the same. […] Then doxycycline (10 μg/mL, BD) and oxaliplatin (5 μM, Sigma) were added for 6 days.

The nature of data set [1]: MTT cytotoxicity assay in HEK-293 cells. It counts as cell-based. The conditions noted are these: human, one day treatment. The procedure: (§1) Cells (5×10^4/well in 48-well dishes) were cultivated at 37° C. incubator containing 5% CO2 for 20 hr and treated with different concentrations of the Gardenia jasminoides extract (5-30 mg/mL) or pure compound (100 nM-1 mM). After one day, 20 μL MTT (3,[4,5-dimethylthiazol-2-yl]-2,5-diphenyl-tetrazolium bromide, 5 mg/mL in PBS; Sigma-Aldrich) was added to cells and incubated for 2 hr. The absorbance of the purple formazan dye was measured at 570 nm by a Bio-Tek μQuant Universal Microplate Spectrophotometer.

Data set [2] deals with SH-SY5Y ATXN3/Q75-GFP cells. Description: ATXN3/Q75 aggregation assay in retinoic acid-differentiated SH-SY5Y cells. It is filed as cell-based, human. As to conditions: one week. The procedure: Flp-InTM-293 cells derived from human 293 (Invitrogen) were cultured as described above. The isogenic ATXN3/[…]-75 cell line was employed, which was formed from subjecting the Flp-InTM-293 cells to targeting insertion of the pcDNA5/FRT/TO-ATXN3/[…] and […] recombinant plasmids. These cell lines were grown in medium containing 5 μg/mL blasticidin and 100 μg/mL hygromycin (InvivoGen). In addition, the method for culture in establishment of the human SH-SY5Y derived Flp-In host cell line and the formation of the isogenic ATXN3/[…]-75 cell line was the same. […] After that, cells were stained with Hoechst 33342 (0.1 μg/mL) and aggregation percentage was assessed as described.

Data set [3] is described as follows: MTT cytotoxicity assay in SH-SY5Y cells. It is filed as cell-based. As to conditions: human, one day treatment. The procedure: as §1
The nature of data set [4]: 1,1-diphenyl-2-picryl hydrazyl (DPPH) radical scavenging assay. It counts as biochemical. As to conditions: for DPPH scavenging activity: 10-200 μM tested, data not shown. The procedure: Then, the scavenging capacity was measured by monitoring the decrease in absorbance at 517 nm by a Thermo Scientific Multiskan GO Microplate Spectrophotometer.

In the case of `O=C(CCCCCCC(=O)Nc1ccccc1)NO` [SAHA, suberoylanilide hydroxamic acid, reference compound], the “ATXN3/Q75 aggregation as compared to untreated cells” value with 293 ATXN3/Q75-GFP cells (at 100 nM) stood at 85.9%.

Regarding `CC(/C=C/C=C(\C)C(=O)O[C@@H]1O[C@H](CO[C@@H]2O[C@H](CO)[C@@H](O)[C@H](O)[C@H]2O)[C@@H](O)[C@H](O)[C@H]1O)=C\C=C\C=C(C)\C=C\C=C(/C)C(=O)O[C@@H]1O[C@H](CO[C@@H]2O[C@H](CO)[C@@H](O)[C@H](O)[C@H]2O)[C@@H](O)[C@H](O)[C@H]1O` [crocin], in the data set with 293 ATXN3/Q75-GFP cells (at 100 nM), the “ATXN3/Q75 aggregation as compared to untreated cells” value is 81.5%. The IC50 at 1 day in data set [1] is greater than 1000 µM; in data set [3], 970 µM. The “aggregation reduction in ATXN3/Q75 expressed neuronal cells” value (from here on “aggregation reduction in ATXN3/Q75”) in data set [2] (100 nM) is 21%.

`COC(=O)C1=CO[C@@H](O)[C@@H]2C(CO)=CC[C@H]12` [genipin]: in data set [4], the DPPH scavenging activity result is “no detectable DPPH scavenging activity”. Moreover, the IC50 at 1 day came to 580 µM in data set [1] and 100 µM in data set [3]. In addition, the “aggregation reduction in ATXN3/Q75” value in data set [2] (500 nM) is recorded as 18%.

Take `COC(=O)C1=CO[C@@H](O[C@@H]2O[C@H](CO)[C@@H](O)[C@H](O)[C@H]2O)[C@@H]2C(CO)=CC[C@H]12` [geniposide]: the “ATXN3/Q75 aggregation as compared to untreated cells” value in the data set on 293 ATXN3/Q75-GFP cells (at 500 nM) turned out to be 82.3%. In addition, in data set [4], the DPPH scavenging activity result is “no detectable DPPH scavenging activity”. For the same compound, the IC50 at 1 day in data set [1] and in data set [3] was greater than 1000 µM throughout. Moreover, in data set [2] (500 nM), the “aggregation reduction in ATXN3/Q75” value is 21%.

On to `O=c1c(O)c(-c2ccc(O)cc2)oc2cc(O)cc(O)c12` [kaempferol, reference compound], for which a half-maximal effect in data set [4] (100 μM DPPH, 30 min room temperature) (EC50) was put at 27 µM.

The record behind these values is patent US20150064287A1, “METHOD FOR TREATING ABNORMAL POLYGLUTAMINE-MEDIATED DISEASES” (NATIONAL TAIWAN NORMAL UNIVERSITY, priority 2013, published 2015).
